The results in this text go back to US20060079453A1, “Hla binding peptides and their uses” (priority 2002, published 2006).

Holding throughout (assay): biochemical
What all share (format): binding

The target in assay [1] is HLA-DR DRB1*0101 (DR1) (Homo sapiens, UniProt P01903+P01911, A100R/D57E/F55L/F60I/F76Y/I96L/L162R/M171V/P40L/Q125E/R42F/V115G/Y59C).
In assay [2] the target is HLA-DR DRB1*0401 (DR4) (Homo sapiens, UniProt P01903+P01911, A100K/A169T/F76Y/I96L/K127E/L162R/M171V/N62H/P40V/Q125Y/R42H/S133A/S149N/S66Y/V115G/V209L/W38E).
In assay [3] the target is HLA-DR DRB1*0405 (DR4) (Homo sapiens, UniProt P01903+P01911, A100R/A169T/D86S/F76Y/I96L/K127E/L162R/M171V/N62H/P40V/Q125Y/R42H/S133A/S149N/S66Y/V115G/V209L/W38E).
The target of assay [4] is HLA-DR DRB1*0701 (DR7) (Homo sapiens, UniProt P01903+P01911, A100R/A102G/A103Q/D57E/D86V/E43K/F76Y/K127E/L162R/M171V/P40G/Q125H/Q99D/R33Q/R42Y/R54Q/S133A/S66F/T210M/V115G/Y107V/Y59L/Y89S).
Assay [5] deals with HLA-DR DRB1*0901 (DR9) (Homo sapiens, UniProt P01903+P01911, A100R/A103E/D57H/D86V/F55Y/F60I/F76Y/I96F/K127E/L162R/M171V/P40D/Q125H/Q99R/R33Q/R42F/S133A/S66N/T210M/V115G/W38K/Y107V/Y59G/Y89S).
For assay [6], the target named is HLA-DR DRB1*1101 (DR11) (Homo sapiens, UniProt P01903+P01911, A100R/A169T/A87E/I96F/K41T/L162R/M171V/P40S/Q125H/Q178H/Q39Y/Q99D/R42S/S66Y/T262R/V115G/W38E). The settings on record: DRB1 *1101.
HLA-DR DRB1*1101 (DR11), sequence (P01903 26-254 limits assumed, other chains not shown): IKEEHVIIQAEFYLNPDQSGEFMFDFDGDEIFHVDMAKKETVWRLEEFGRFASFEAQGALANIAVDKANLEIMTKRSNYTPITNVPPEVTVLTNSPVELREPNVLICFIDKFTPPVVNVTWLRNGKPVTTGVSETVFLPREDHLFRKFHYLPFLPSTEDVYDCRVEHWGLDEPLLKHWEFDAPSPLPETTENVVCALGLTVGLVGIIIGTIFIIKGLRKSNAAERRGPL
Assay [7] has as its target HLA-DR DRB1*1302 (DR13) (Homo sapiens, UniProt P01903+P01911, A100E/A169T/K41T/L162R/M171V/P40S/Q125H/Q178H/Q39Y/Q99D/R42S/S66N/T262R/V115G/W38E/Y61H). The following applies: DRBI *1302.
Assay [8] has as its target HLA-DR DRB1*1501 (DR15) (Homo sapiens, UniProt P01903+P01911). The settings on record: DRBI *1501.
For assay [9], the target named is HLA-DR DRB4*0101 (DR53) (Homo sapiens, UniProt P01903+P13762, G164S). The following applies: DRB4 *0101.
Assay [10] has as its target HLA-DR DRB5*0101 (DR51) (Homo sapiens, UniProt P01903+Q30154). The settings on record: DRB5 *0101.
Assay [11] addresses HLA-DR DRB1*0301 (DR3) (Homo sapiens, UniProt P01903+P01911, A100K/A102G/A103R/A169T/F55Y/I96L/K41T/L162R/M171V/P40S/Q125H/Q178H/Q39Y/R42S/S66N/T106N/T262R/W38E/Y61H).

Read-outs that look alike come from different tables or passages of the source. No end group written: not given here. A value given as a limit tells only on which side of the number the result lay.

HLA-DR DRB1*0301 (DR3), sequence (P01903 26-254 limits assumed, other chains not shown): as above
HLA-DR DRB1*1302 (DR13), sequence (P01903 26-254 limits assumed, other chains not shown): as above

Consider NYSVYGNTLEQTVKK, for which the IC50 in [1] (DRB1 *0101) was 14.1 µM; in [2] (DRB1 *0401), 1.93 µM; in assay [3] (DRB1 *0405), 0.822 µM; in assay [4] (DRB1 *0701) it was above 14.6 µM; in assay [5] (DRB1 *0901) it was 47.5 µM; in assay [6] it was above 56.7 µM. Also, the IC50 was 8.61 µM in assay [7], 15.6 µM in assay [8] and above 25.1 µM in assay [9].
As to `CSCC[C@H](NC(=O)[C@H](Cc1ccc(O)cc1)NC(=O)[C@H](CCC(=O)O)NC(=O)[C@@H](N)Cc1c[nH]cn1)C(=O)N[C@@H](CC(C)C)C(=O)N[C@@H](CC(=O)O)C(=O)N[C@@H](CC(C)C)C(=O)N[C@@H](CCC(N)=O)C(=O)N1CCC[C@H]1C(=O)N[C@@H](CCC(=O)O)C(=O)N[C@H](C(=O)N[C@H](C(=O)N[C@@H](CC(=O)O)C(=O)N[C@@H](CC(C)C)C(=O)N[C@@H](Cc1ccc(O)cc1)C(=O)O)[C@@H](C)O)[C@@H](C)O`, the IC50 in assay [3] (DRB1 *0405) was 2.29 µM; in assay [4] (DRB1 *0701), above 18.6 µM; in assay [5] (DRB1 *0901) it was 21.3 µM; in assay [6], above 56.2 µM; in assay [7] it was 13 µM; in [8] it was 30.9 µM. Moreover, the IC50 in assay [9] was 2.1 µM; in assay [10], above 22.9 µM.
As for QDYVLDLQPEATDLH, the IC50 in assay [1] (DRB1 *0101) was 13.4 µM; in [2] (DRB1 *0401), 0.253 µM; in assay [3] (DRB1 *0405), 5.59 µM; in assay [4] (DRB1 *0701), above 18.6 µM; in [5] (DRB1 *0901) it was above 39.9 µM; in [6], above 11.9 µM. The IC50 is above 11.5 µM in assay [7], above 62.8 µM in assay [8], 1.85 µM in assay [9] and above 22.9 µM in [10].
Regarding CSNLSTCVLQKLSQE, the IC50 is above 205 µM in [11] (read-out: DRB1 *0301), 5.34 µM in assay [3] (read-out: DRB1 *0405), 31.8 µM in assay [4] (read-out: DRB1 *0701) and 7.23 µM in assay [5] (read-out: DRB1 *0901).
As for DFAFADLTVVYREGN, the IC50 in [1] (DRB1 *0101) is 3.29 µM; in [2] (DRB1 *0401) it was 0.141 µM; in assay [3] (DRB1 *0405), 0.06 µM; in [4] (DRB1 *0701), 1.73 µM; in [5] (DRB1 *0901), 0.322 µM; in assay [6] it was above 18 µM. Moreover, the IC50 in assay [7] was 9.63 µM; in assay [8], 4.92 µM; in assay [9], 18 µM; in assay [10] it was 39.8 µM.
In the case of DLRVVQQLLMGALTV, the IC50 in assay [1] (DRB1 *0101) worked out at 0.0084 µM; in assay [11] it was 26 µM; in assay [3] (DRB1 *0405) it was 0.084 µM; in assay [4] (DRB1 *0701), 0.508 µM; in assay [5] (DRB1 *0901), 1.84 µM; in assay [7], 0.057 µM. In [9], this compound returned an IC50 of 0.0095 µM.
As to LTIVYRDDTPHGVCT, the IC50 in assay [1] (read-out: DRB1 *0101) was above 15.4 µM; in [11] (read-out: DRB1 *0301), 0.187 µM; in assay [2] (read-out: DRB1 *0401) it was 0.023 µM; in assay [3] (read-out: DRB1 *0405), above 8.59 µM; in assay [4] (read-out: DRB1 *0701), above 72.3 µM; in assay [5] (read-out: DRB1 *0901), above 25.3 µM.
Consider CKFVVQLDIQSTKED [CKFVVQLDIQSTKED], for which the IC50 was 0.374 µM in assay [3] (DRB1 *0405); 4.55 µM in assay [4] (DRB1 *0701); 19.3 µM in assay [5] (DRB1 *0901); above 31.6 µM in assay [6]; above 11.4 µM in assay [7]; 22.9 µM in [8]. Moreover, the IC50 in assay [9] was 0.301 µM; in assay [10], above 31.4 µM.
As to RETLQEIVLHLEPQN, the IC50 in [1] (DRB1 *0101) came out at 1.59 µM; in [2] (DRB1 *0401), 2.94 µM; in [3] (DRB1 *0405), 0.829 µM; in assay [4] (DRB1 *0701) it was 25.9 µM; in assay [5] (DRB1 *0901), 19.1 µM; in [6], 7.9 µM. Also, the IC50 in [7] was 11.4 µM; in [8] it was 16.2 µM; in assay [9] it was 0.095 µM; in assay [10] it was above 55.1 µM.
Regarding REVYKFLFTDLRIVY, the IC50 amounted to 0.0087 µM in assay [1] (DRB1 *0101); 0.052 µM in assay [3] (DRB1 *0405); 0.054 µM in assay [4] (DRB1 *0701); 0.204 µM in assay [5] (DRB1 *0901); 2.26 µM in assay [6]; 0.08 µM in assay [7]. For the same compound, the figures for the IC50 in assay [8], in [9] and in assay [10] were 0.258 µM, 0.203 µM and 0.155 µM, respectively.
